Data set [1] relates to H1299 cells. The data set is described as follows: Apoptosis alone or with radiation, Annexin-PI staining and FACS assay. The note with it: 48 h; for effect on apoptosis together with radiation compared to compound or radiation alone: H1299, 6 Gy. Type of data set: cell-based. The protocol: H1299, a cell strain of lung cancer, which is generally treated by radiation therapy, was treated with radiation in combination with compound I or II, and apoptosis thereof was measured. Compound I or II was added to H1299 cells inoculated to a 6 cm cell incubation plate as described in Example 3, and two hours later, 6 Gy of radioactive rays were irradiated thereto, and 48 hours later, apoptosis was measured by Annexin-PI staining and FACS assay. […] Table 2 [Table 2]

Data set [2] deals with H1299. The data set is described as follows: Apoptosis of lung cancer cells alone or with doxorubicin, CCK-8 viability assay. Type of data set: cell-based. The note with it: 48 h; for apoptosis effect together with doxorubicin: H1299, compound added 2 h before doxorubicin 0.05 µM; for apoptosis: H1299, compound alone at 5 µM or more, FIGS. 9a, 9c. How it is done:
(§1) TGF-βis known to have contrasting effects related to a tumor. That is, at an initial stage, TGF-β suppresses tumor growth, but at a latter stage, promotes metastasis or infiltration of a tumor. Thus, apoptosis of tumor cell lines caused by compound I and II, and apoptosis of tumor cell lines caused by compound I or II in combination with doxorubicin, an anti-cancer agent, were measured. […] The tumor cells were treated with compound I or II at the concentrations shown in FIG. 9, and 2 hours later, doxorubicin was added thereto. Then, the cells were incubated for 48 hours under the conditions described above and then, quantified using a CCK-8 viability assay kit (Dojindo, Japan).
(In general: Tetrazolium assays rely on reduction of a dye to a coloured formazan, in cell work by metabolically active cells.)

Data set [3] has as its system HSC-T6 cells. Nature of the data set: Western blotting of fibrosis markers in TGF-β-treated hepatic stellate cells. Type of data set: cell-based, human. The note with it: HSC-T6, 0, 1, 5 and 10 µM added 2 h before TGF-β (5 ng/ml), 24 h; FIGS. 6a, 6b. The protocol: In addition, levels of α-smooth muscle actin (α-SMA) and extracellular matrix material fibronectin, which are typically used as a fibrosis molecular marker to identify fibrosis of hepatic stellate cells, were measured by western blotting. Two hours before the treatment with TGF-β(5 ng/ml), each of compounds I and II was added at a varying concentration (0, 1, 5 and 10 µM) to the HSC-T6 cells incubated under the conditions described above, and then, the HSC-T6 cells were incubated under 5% CO2, and at a temperature of 37°C. After 24-hour incubation, the HSC-T6 cells were dissolved in a RIPA buffer solution (50 mM Tris-Cl (pH7.4), 1% NP-40, 150 mM NaCl, 1 mM EDTA) including a protease inhibitor (1 mM PMSF, […] aprotinin, […] leupeptin, and 1 mM Na3VO4) to prepare cytoplasm fractions, and 4-12% gradient SDS-PAGE (Invitrogen) was performed on the cytoplasmic fractions to separate proteins. The proteins separated on the SDS-PAGE gel were transferred to a nitrocellulose membrane (BioRad, Hercules, CA, USA) and the membrane was blocked with 5% skim milk. Then, the membrane was treated with an anti-α-SMA antibody (Sigma, U.S.A.), an anti-fibronectin antibody (Santa Cruz, U.S.A.), and an anti-GAPDH antibody (Ab Frontier, Korea). […]
(In general: A western blot detects proteins with antibodies after separation by electrophoresis.)

Data set [4] has as its system U87-MG. The data set is described as follows: Apoptosis of brain cancer cells alone or with doxorubicin, CCK-8 viability assay. The note with it: 48 h; for apoptosis effect together with doxorubicin: compound added 2 h before doxorubicin 0.05 µM; for apoptosis: compound alone at 5 µM or more, FIGS. 9b, 9d. Type of data set: cell-based. How it is done: as §1
In data set [5] the test system is HSC-T6 cells. The data set is described as follows: Serum-induced proliferation of hepatic stellate cells, CCK-8 assay. Type of data set: cell-based, human. The note with it: added 2 h before serum, 48 h. How it is done:
HSC-T6 cells, a stable cell line made by professor S.L. Friedman at Mount Sinai in U.S. A., were obtained and used as hepatic stellate cells (HSC), which are employed mainly as a subject for liver fibrosis. HSC-T6 cells were c under 5% CO2 at a temperature of 37°C in a DMEM supplemented with 10% FBS, 100 units/ml of penicillin, and 100 µg/ml of streptomycin. In order to identify whether compounds I and II directly affect proliferation of hepatic stellate cells, the incubation was performed in a serum-free medium for 24 hours and then the culture was treated with 1, 10, and 20 µM of the compounds I and II, 2 hours prior to addition of serum thereto. Subsequently, under the condition described above, the incubation was further performed for 48 hours and then a CCK-8 assay kit was used to measure cell viability. Absorbance was measured at a wavelength of 450 nm by using a spectrophotometer (Labsystems, U.S.A.) to count the number of cells.

Data set [6] has as its system HEK 293 cells. Nature of the data set: Cytotoxicity test, CCK-8 assay. The note with it: CCK-8, absorbance 450 nm, FIGS. 4a, 4b. The format is cell-based, human. How it is done:
In order to confirm that the luciferase activity is inhibited due to TGF-β inhibitor, rather than apoptosis, a CCK-8 survival rate assay kit (Dojindo, Japan) was used and an absorbance was measured at a wavelength of 450 nm by using a spectrophotometer (Labsystems, U.S.A.) to count the number of cells. The shown values are average values obtained from three independent experiments.

Where [7] appears, read: H1299, compound 5 µM + radiation (6 Gy) 2 h later.

Each structure is given as a SMILES string.

For `Cc1[nH]c2nc3c(c(=O)n(Cc4c(F)cccc4Cl)c(=O)n3C)n2c1C` [compound II, 3-(2-chloro-6-fluorobenzyl)-1,6,7-trimethyl-1H-imidazo[2,1-f]purine-2,4(3H,8H)-dion], the “effect on apoptosis together with radiation compared to compound or radiation alone” value in data set [1] is “synergistic effect on apoptosis”. Moreover, the “Apoptosis (%, average±SEM)” value in data set [1] (setting [7]) was 55.91±5.58%; in data set [1] (H1299, compound 5 µM alone), 14.79±0.78%. For the same molecule, the “apoptosis effect together with doxorubicin” value in data set [2] and in data set [4] was “additive or synergistic apoptosis effects” each time. Moreover, the values for the apoptosis entry in data set [2] and in data set [4] were “apoptosis occurred” and “did not occur”, respectively. The “expression of α-SMA and fibronectin (fibrosis markers)” value in data set [3] is “significantly reduced fibrosis markers”. Further, the inhibition at 1 µM in data set [5] (Homo sapiens, HSC-T6, 1 µM, FIG. 5b, read-out: proliferation of hepatic stellate cells inhibited) was 12%. Also, the inhibition at 10 µM in data set [5] (Homo sapiens, HSC-T6, 10 µM, FIG. 5b, read-out: proliferation of hepatic stellate cells inhibited) was found to be 25%. The inhibition at 20 µM in data set [5] (Homo sapiens, HSC-T6, 20 µM, FIG. 5b, read-out: proliferation of hepatic stellate cells inhibited) is 30%. Further, in data set [6], the “cell count (cytotoxicity)” value was “no significant decrease in the cell count”.
For the molecule `Cc1cn2c(nc3c2c(=O)n(Cc2ccccc2Cl)c(=O)n3C)[nH]1` [compound I, 3-(2-chlorobenzyl)-1,7-dimethyl-1H-imidazo[2,1-f]purine-2,4(3H,8H)-dion], the “effect on apoptosis together with radiation compared to compound or radiation alone” value in data set [1] is “synergistic effect on apoptosis”. Further, the “Apoptosis (%, average±SEM)” value in data set [1] (setting [7]) is recorded as 73.42±1.84%; in data set [1] (H1299, compound 5 µM alone), 20.86±1.03%. For the same molecule, the “apoptosis effect together with doxorubicin” value in data set [2] and in data set [4] was “additive or synergistic apoptosis effects” in each case. The apoptosis result in data set [2] is “apoptosis occurred”; in data set [4], “did not occur”. Also, in data set [3], the “expression of α-SMA and fibronectin (fibrosis markers)” value was “concentration-dependently reduced”. Also, in data set [5] (1, 10 and 20 µM, FIG. 5a), the “proliferation of hepatic stellate cells” value is on record as “almost completely blocked”. In addition, the “cell count (cytotoxicity)” value in data set [6] was “no significant decrease in the cell count”.

The values above are taken from patent publication EP2488183B1, “Composition for inhibiting TGF-beta comprising imidazopurine derivatives” (Korea Institute of Radiological & Medical Sciences, priority 2009, dated 2011).
